Holding throughout (type): biochemical
Assay [1] addresses T1, PTP receptor type O (PTPRO) (Homo sapiens, UniProt Q16827).
T1 sequence (Q16827 30-1216): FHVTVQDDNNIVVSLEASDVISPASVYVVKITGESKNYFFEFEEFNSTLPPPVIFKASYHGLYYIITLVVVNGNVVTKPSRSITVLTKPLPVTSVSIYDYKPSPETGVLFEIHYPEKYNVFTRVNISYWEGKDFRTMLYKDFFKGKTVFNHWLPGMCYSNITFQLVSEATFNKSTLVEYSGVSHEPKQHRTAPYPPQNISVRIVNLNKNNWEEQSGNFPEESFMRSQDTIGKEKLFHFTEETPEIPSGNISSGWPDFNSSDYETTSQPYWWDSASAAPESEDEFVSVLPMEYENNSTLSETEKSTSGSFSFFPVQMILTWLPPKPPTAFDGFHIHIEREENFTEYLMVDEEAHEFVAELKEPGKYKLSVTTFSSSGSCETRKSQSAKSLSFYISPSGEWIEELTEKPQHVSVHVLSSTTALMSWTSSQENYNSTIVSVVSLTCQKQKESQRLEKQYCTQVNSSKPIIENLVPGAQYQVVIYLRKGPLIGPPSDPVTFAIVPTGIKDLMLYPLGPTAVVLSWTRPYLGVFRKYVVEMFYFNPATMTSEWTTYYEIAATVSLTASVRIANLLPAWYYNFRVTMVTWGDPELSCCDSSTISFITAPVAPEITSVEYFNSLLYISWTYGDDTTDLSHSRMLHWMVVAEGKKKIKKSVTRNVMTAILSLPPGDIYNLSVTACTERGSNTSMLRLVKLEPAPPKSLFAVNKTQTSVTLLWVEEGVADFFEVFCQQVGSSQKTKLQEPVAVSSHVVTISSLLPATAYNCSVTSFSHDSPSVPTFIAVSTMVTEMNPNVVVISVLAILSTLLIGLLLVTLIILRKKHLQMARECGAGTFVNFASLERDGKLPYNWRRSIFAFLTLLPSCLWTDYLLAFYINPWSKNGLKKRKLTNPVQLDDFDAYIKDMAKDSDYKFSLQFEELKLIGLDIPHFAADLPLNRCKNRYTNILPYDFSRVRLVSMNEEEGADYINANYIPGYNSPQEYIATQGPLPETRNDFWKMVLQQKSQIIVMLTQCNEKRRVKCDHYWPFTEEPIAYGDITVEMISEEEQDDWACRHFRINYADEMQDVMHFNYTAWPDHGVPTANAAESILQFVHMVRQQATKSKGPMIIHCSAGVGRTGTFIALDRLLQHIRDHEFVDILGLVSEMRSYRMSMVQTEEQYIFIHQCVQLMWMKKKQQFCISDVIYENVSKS
Description: Selectivity inhibition assay against PTPRO. The note with it: read-out: % inhibition at 100 μM for PTPRO. The procedure: Because the selectivity has been one of the most important issues in the development of phosphatase inhibitors, we compared the inhibitory activities of 1–6 for PTPRQ to those for its homologous protein, PTP receptor type O (PTPRO). These inhibition assays for selectivity were done in duplicates at the inhibitor concentration of 100 μM. […] The simultaneous inhibitions of PTPRQ and PTPRO by 1–6 are actually not surprising because they share a highly conserved catalytic module. To obtain the specific inhibitors for PTPRQ, therefore, it seems that some chemical groups should be added to 1–6 in such a way that the resulting derivatives can be stabilized not only in the active site but also in other peripheral binding pockets.

For assay [2], the target named is T2, PTPRQ (Homo sapiens, UniProt Q9UMZ3).
T2 construct: The catalytic domain of PTPRQ (PTPRQ-C, residues 2661–2948) was subcloned into pET28a; His tag; made in house; host or cells: Escherichia coli BL21 (DE3)
T2 sequence (Q9UMZ3 2015-2302 limits assumed): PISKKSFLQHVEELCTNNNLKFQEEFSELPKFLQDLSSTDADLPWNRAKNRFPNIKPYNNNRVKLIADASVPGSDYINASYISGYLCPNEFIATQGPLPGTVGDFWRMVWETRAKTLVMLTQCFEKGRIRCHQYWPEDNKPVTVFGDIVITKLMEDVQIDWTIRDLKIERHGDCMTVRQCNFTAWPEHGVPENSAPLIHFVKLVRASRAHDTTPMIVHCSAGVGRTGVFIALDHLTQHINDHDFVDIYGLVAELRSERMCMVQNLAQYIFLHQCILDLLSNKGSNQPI
In words: PTPRQ enzyme inhibition assay monitoring hydrolysis of pNPP. The settings on record: for inhibition at 100 µM: inhibitor 100 μM, duplicates. As to the method:
The catalytic domain of PTPRQ (PTPRQ-C, residues 2661–2948) was subcloned into pET28a and overexpressed using Escherichia coli BL21 (DE3) strain. Cells were grown at 291 K after induction with 0.1 mM IPTG for 20 hours. His-tagged PTPRQ-C was purified by nickel-affinity chromatography. 150 compounds selected from the precedent virtual screening were evaluated for their in vitro inhibitory activity against the recombinant human PTPRQ. Initial inhibitor screening was performed by monitoring the extent of hydrolysis of p-Nitrophenyl Phosphate (pNPP) with a […] assay. The purified PTPRQ-C (1.5 μM), pNPP (5 mM), and a candidate inhibitor were incubated in the reaction mixture containing 50 mM Bis-Tris (pH 6.0), 2 mM dithiothreitol for 60 minutes. This enzymatic reaction was stopped with the addition of sodium hydroxide (0.5 M). The phosphatase activities were then checked by the absorbance changes due to the hydrolysis of the substrate at 405 nm. IC50 values of the inhibitors were determined from direct regression curve analysis.

In assay [3] the target is T2, PTPRQ. Description: Inhibition of hydrolysis of PI(3,4,5)P3 by PTPRQ (malachite green). The settings on record: 1.5 μM PTPRQ-C, 300 μM PI(3,4,5)P3, 100 μM inhibitor. As to the method:
Six PTPRQ inhibitors identified under the above reaction conditions were further investigated using PI(3,4,5)P3 as the substrate (Cayman Chemical). The enzymatic activity of PTPRQ was measured in 80 μL reaction mixture containing 50 mM Tris–HCl (pH 6.0), 10 mM dithiothreitol, 300 μM PI(3,4,5)P3, 100 μM inhibitor, and 1.5 μM of the purified catalytic domain of PTPRQ. The mixture was incubated for 60 minutes at 310 K, and the enzymatic reaction was stopped by the addition of 20 μL of malachite green/ammonium molybdate reagent (Bioassay systems). The absorbance was measured at 650 nm using a plate reader.

[4] abbreviates: pNPP 5 mM substrate, 1.5 μM PTPRQ-C, pH 6.0, 60 minutes, read-out: IC50 against PTPRQ.

Like-named read-outs stand apart in the source and are kept apart here.

Turning to `CCOC(=O)Cn1cc(/C=C2/C(=O)NC(=O)N(c3cc(C)cc(C)c3)C2=O)c2ccccc21` [Compound 1], the inhibition at 100 µM in assay [1] amounted to 94.4 ± 0.5%. At PTPRQ [2], this compound yielded an IC50 of 29.9 µM and an inhibition at 100 µM of 71.1 ± 0.8%. Further, the “inhibitory activity against the hydrolysis of PI(3,4,5)P3 by PTPRQ” value (“inhibitory activity” below) at PTPRQ [3] is “significant inhibitory activity”.
For the compound `O=C1NC(=S)S/C1=C\c1cn(-c2ccccc2)nc1-c1ccccc1` [Compound 2], the inhibition at 100 µM was 94.2 ± 1.5% in assay [1] (inhibitor 100 μM, duplicates) and 57.7 ± 0.4% at PTPRQ [2]. The IC50 at PTPRQ [2] (setting [4]) stood at 85.7 µM. Further, at PTPRQ [3], the “inhibitory activity” value was “significant inhibitory activity”.
The matching figures for `CN1C(=O)/C(=C/c2ccc(OCc3cccc([N+](=O)[O-])c3)cc2)S/C1=N/c1cccc(C(=O)O)c1` [Compound 3]: 48.7 ± 2.1%, 50.9 ± 2.2%, 63.8 µM and “effect of reducing PTPRQ activity”.
In the case of `COc1cccc(-c2nn(-c3ccccc3)cc2/C=C2\SC(=S)N(CCC(=O)O)C2=O)c1` [Compound 4], the inhibition at 100 µM in assay [1] (inhibitor 100 μM, duplicates) is 95 ± 3.5%; against PTPRQ [2] it was 82.6 ± 0.2%. The IC50 at PTPRQ [2] (setting [4]) is 44.8 µM.
In the case of `O=C(O)CCN1C(=O)/C(=C\c2cccc(Oc3ccccc3)c2)SC1=S` [Compound 5], the inhibition at 100 µM in assay [1] (inhibitor 100 μM, duplicates) was 95 ± 0.8%; against PTPRQ [2] it was 62.5 ± 1.6%. At PTPRQ [2] (setting [4]), the half-maximal inhibitory concentration (IC50) stood at 65.3 µM.
For `COC(=O)c1cccc(-c2ccc(/C=C3\C(=O)N(c4cccc(C(=O)O)c4)N=C3C)o2)c1` [Compound 6], the inhibition at 100 µM in assay [1] (inhibitor 100 μM, duplicates) is 81.2 ± 0.9%; at PTPRQ [2], 57 ± 2.1%. For the same compound, the IC50 at PTPRQ [2] (setting [4]) came to 73.1 µM. The “inhibitory activity” value on PTPRQ [3] was “effect of reducing PTPRQ activity”.

What is called inhibition is the relative decrease from the control value, in per cent. As usually defined, the IC50 is the concentration that inhibits the measured activity by half.

(Values after paper PMC3765866, “Identification of novel PTPRQ phosphatase inhibitors based on the virtual screening with docking simulations” (Theoretical Biology & Medical Modelling, 2013).)
